Experimental data taken from PubChem BioAssay (NCI).
“And” between values parts separate entries of the source, which are not always exact repeats. Identical values can stand only once.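 How tested: cells in 96-well plates exposed to compound for 48 hours at five concentrations. The concentration for 50% growth inhibition is given as GI50. TGI: total growth inhibition.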

Legend:
Experiment in all cases: growth of human tumour cells (NCI), 48 h
ACHN renal = tested on: ACHN renal
COLO 205 colon = tested on: COLO 205 colon
EKVX NSCLC = tested on: EKVX NSCLC
HCC-2998 colon = tested on: HCC-2998 colon
HL-60(TB) leukemia = tested on: HL-60(TB) leukemia
MCF7 breast = tested on: MCF7 breast
OVCAR-4 ovarian = tested on: OVCAR-4 ovarian
OVCAR-8 ovarian = tested on: OVCAR-8 ovarian
SF-268 CNS = tested on: SF-268 CNS
SR leukemia = tested on: SR leukemia

SMILES	GI50 (ACHN renal) [µM]	TGI (ACHN renal)	GI50 (COLO 205 colon)	TGI (COLO 205 colon)	GI50 (EKVX NSCLC)	TGI (EKVX NSCLC) [µM]	GI50 (HCC-2998 colon) [µM]	TGI (HCC-2998 colon)	GI50 (HL-60(TB) leukemia) [µM]	TGI (HL-60(TB) leukemia)	GI50 (MCF7 breast)	TGI (MCF7 breast)	GI50 (OVCAR-4 ovarian)	TGI (OVCAR-4 ovarian) [µM]	GI50 (OVCAR-8 ovarian)	TGI (OVCAR-8 ovarian)	GI50 (SF-268 CNS) [µM]	TGI (SF-268 CNS)	GI50 (SR leukemia)	TGI (SR leukemia) [µM]
O=C(NCC(=O)N1CC[C@H](NC2CCC(O)(c3ccc(-c4ncccn4)cn3)CC2)C1)c1cccc(C(F)(F)F)c1 (stereo not given in full)	> 100	> 100 µM	30.2 µM	> 100 µM	52.7 µM	> 100	> 100	> 100 µM	55.4	> 100 µM	41.8 µM	> 100 µM	37.7 µM	> 100	> 100 µM	> 100 µM	> 100	> 100 µM	25.4 µM	> 100
CC(C)=CCc1ccc(O)c(=O)cc1C(C)C	0.484	> 100 µM	3.27 µM	> 100 µM	0.831 µM	> 100	0.583	29.8 µM	0.624	8.72 µM	0.501 µM	> 100 µM	0.532 µM	> 100	0.413 µM	> 100 µM	0.671	> 100 µM	0.465 µM	> 100
O=C(Nc1cccc([N+](=O)[O-])c1)c1ccc2ccccc2c1O	12.2	> 95.4 µM	15.4 µM	> 57.5 µM	2.9 µM	> 57.2	5.01	> 100 µM	4.71	> 44.5 µM	2.88 µM	> 43.2 µM	4.95 µM	> 100	9.66 µM	> 100 µM	7.72	> 100 µM	3.94 µM	> 29.1
O=C1Nc2ccccc2/C1=C/c1ccccc1		> 100 µM		30.9 µM		28.8		30.1 µM		43.5 µM		23.7 µM		83		66.1 µM		35.1 µM		48.1
NC(N)=N/N=C(/c1ccccc1)c1ccc(Cl)cc1	40.6	> 100 µM	14.4 µM	> 100 µM			16.3	47.5 µM	1.34	62.2 µM	3.69 µM	> 100 µM	19 µM	> 100	36.4 µM	> 100 µM	8.44	> 100 µM	3.94 µM	> 100
Nc1nc(Cl)c(N=Nc2ccc(Cl)cc2)c(NCC2(CO)CC(OCc3ccccc3)C2)n1 (stereo not given)	2.6	20.3 µM and 3.55 µM and 3.47 µM	27.9 µM and 33.7 µM and 6.17 µM	> 100 µM and 25.6 µM	2.37 µM and 11 µM and 3.08 µM			87.3 µM and > 100 µM and 16.9 µM	3.09	29 µM and > 100 µM	3.9 µM and 31.3 µM and 7.84 µM	14.2 µM and > 100 µM and 22.6 µM	2.25 µM and 15.9 µM and 3.65 µM		3.69 µM and 16.1 µM and 4.39 µM	16.3 µM and > 100 µM and 23.9 µM		61.1 µM and > 100 µM and > 61 µM	2.95 µM and 6.33 µM and 3.1 µM	
COc1ccc(N(C)c2nc(Cl)nc3ccn(C)c23)cc1	< 0.01	> 100 µM	< 0.01 µM	< 0.01 µM	< 0.01 µM	> 100	< 0.01	> 100 µM	< 0.01	< 0.01 µM	< 0.01 µM	> 100 µM	< 0.01 µM	> 100	< 0.01 µM	> 100 µM	< 0.01	> 100 µM	< 0.01 µM	> 100
O=C1c2cccc3cccc(c23)C(=O)N1CCCCN1CCN(CCCCOc2ccc(-c3nc4ccc(N5CCOCC5)cc4[nH]3)cc2)CC1	3.19	> 100 µM	> 100 µM	> 100 µM	> 100 µM	> 100	> 100	> 100 µM	4.62	> 100 µM	> 100 µM	> 100 µM	> 100 µM	> 100	8.8 µM	> 100 µM	> 100	> 100 µM	1.68 µM	3.9
Cn1ccnc1C(=O)/C=C/c1ccc(C(=O)Nc2ccccc2O)cc1	1.99	4.01 µM	2.51 µM	5.15 µM	2.45 µM	7.09	2.29	4.26 µM	2.13	5.73 µM	1.77 µM	6.51 µM	2.5 µM	12.5	3.29 µM	14.9 µM	2.39	7.2 µM	0.307 µM	6.55
O=C(CC(O)c1ccncc1)c1ccccc1 (stereo not given)	25.9	> 100 µM	16.5 µM	31.2 µM			35	> 100 µM	17.6	59.6 µM	24.7 µM	> 100 µM	20.5 µM	> 100	33.8 µM	> 100 µM	37.1	> 100 µM	18.9 µM	47.6
c1ccc2c(-c3nc4ccccc4[nH]3)cccc2c1	7.97	> 100 µM	3.48 µM	11.8 µM			6.96	> 100 µM	2.78	14.8 µM	2.94 µM	37.9 µM	10.9 µM	> 100	4.09 µM	33.3 µM	5.62	> 100 µM	1.42 µM	21.4
C=C(C)[C@@H]1CC[C@]2(C(=O)O)CC[C@]3(C)[C@H](CC[C@@H]4[C@@]5(C)C[C@@H](CC#Cc6ccc(Br)cc6)C(=O)C(C)(C)[C@@H]5CC[C@]43C)[C@@H]12	13.5	> 100 µM	18.2 µM	> 100 µM			36	> 100 µM	22.4	> 100 µM	4.94 µM	> 100 µM	4.95 µM	> 100	5.84 µM	> 100 µM	6.23	> 100 µM	9.33 µM	> 100
COc1cc(C(=O)/C=C/c2c(-c3ccc(F)cc3)nc3ncccn23)cc(OC)c1OC	2.21	6.45 µM			2.71 µM	> 100	1.77	3.42 µM	3.33	> 100 µM	1.61 µM	15.6 µM	2.93 µM	> 100	2.69 µM	> 100 µM	1.9	14.1 µM	2.28 µM	> 100
